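Results reflect a 48-hour exposure of cells in 96-well plates to compound at five concentrations. The concentration for full growth arrest is given as TGI.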
What was measured:
Assay in all cases: growth of human tumour cells (NCI), 48 h
HT29 colon = system: HT29 colon
IGROV1 ovarian = system: IGROV1 ovarian
MALME-3M melanoma = system: MALME-3M melanoma
MDA-N = system: MDA-N
OVCAR-8 ovarian = system: OVCAR-8 ovarian
SF-295 CNS = system: SF-295 CNS
SR leukemia = system: SR leukemia
NCI-H226 lung = system: NCI-H226 lung
NCI-H522 lung = system: NCI-H522 lung
OVCAR-3 ovarian = system: OVCAR-3 ovarian
U251 CNS = system: U251 CNS
NCI/ADR-RES ovarian = system: NCI/ADR-RES ovarian
SK-MEL-2 melanoma = system: SK-MEL-2 melanoma

Compound	TGI (HT29 colon) [µM]	TGI (IGROV1 ovarian) [µM]	TGI (MALME-3M melanoma) [µM]	TGI (MDA-N) [µM]	TGI (OVCAR-8 ovarian) [µM]	TGI (SF-295 CNS) [µM]	TGI (SR leukemia) [µM]	TGI (NCI-H226 lung) [µM]	TGI (NCI-H522 lung) [µM]	TGI (OVCAR-3 ovarian) [µM]	TGI (U251 CNS) [µM]	TGI (NCI/ADR-RES ovarian) [µM]	TGI (SK-MEL-2 melanoma) [µM]
Clc1cccc(-c2sc(-c3ccsc3)cc2Cc2ccsc2)c1	> 10	> 10	> 10	> 10	> 10	> 10	> 10	–	–	–	–	–	–
O=C(/C=C\c1cccc2ccccc12)c1ccc(F)cc1	36.6	29.4	32.1	–	28.4	41.1	–	> 100	40.2	30.9	29.9	–	–
CC12C3C4C1C1C2C3C41CO (configuration not stated)	> 100	> 100	–	> 100	> 100	> 100	> 100	> 100	–	> 100	> 100	> 100	> 100
COc1ccc(/C(C)=N/NC(=O)c2ccncc2)c(OC)c1	–	> 10	> 10	> 10	> 10	–	> 10	> 10	–	–	> 10	> 10	–
O=C1CSC(c2c[nH]c3ccccc23)N1c1ccc(Cl)cc1 (configuration not stated)	> 100	> 100	–	> 100	> 100	> 100	–	> 100	–	> 100	> 100	> 100	> 100
CCOC(=O)C(=O)C=P(c1ccccc1)(c1ccccc1)c1ccccc1	> 100	> 100	> 100	–	> 100	> 100	> 100	> 100	> 100	> 100	> 100	–	> 100
C=CCNC(=S)N1CC(C)C(=O)Nc2cc(Cl)ccc21 (configuration not stated)	> 100	> 100	> 100	–	> 100	> 100	> 100	> 100	> 100	–	> 100	–	> 100
CC(=O)OCC1OC(n2ccc(=O)[nH]c2=O)C(OC(C)=O)C(OC(C)=O)C1OC(C)=O (configuration not stated)	> 100	> 100	> 100	–	> 100	> 100	> 100	> 100	> 100	> 100	> 100	–	> 100
COC(=O)c1cc(C(=O)OC)c(CC(=O)C(=O)NC2C3CC4CC(C3)CC2C4)nc1CC(=O)C(=O)NC1C2CC3CC(C2)CC1C3 (configuration not stated)	> 100	> 100	> 100	–	> 100	> 100	> 100	> 100	> 100	> 100	> 100	–	> 100
O=C/C1=C/C2=Cc3ccccc3C=C(/C=C(/C=O)C1)C2	> 100	> 100	> 100	–	> 100	> 100	–	> 100	> 100	98.4	> 100	–	> 100
COc1ccc(C2=NN(c3ccccc3)C[N+](c3ccc(C)cc3)=N2)cc1	> 100	> 100	> 100	–	> 100	> 100	> 100	> 100	26.5	47.2	45.3	–	–
C1CSCCSCCCSC2CCCCC2SC1 (configuration not stated)	60.9	> 100	–	> 100	> 100	> 100	> 100	–	> 100	> 100	> 100	> 100	–
Cc1c(C)c(C)c(Cn2[nH]c(=O)n(C)c2=O)c(C)c1C	> 100	> 100	> 100	> 100	> 100	> 100	–	> 100	> 100	–	> 100	> 100	> 100
CNC(=O)NCNC(=O)NC	> 100	> 100	> 100	–	> 100	> 100	–	–	–	> 100	> 100	–	> 100
Cc1ccc(C2(c3ccc(Cl)cc3)c3ccccc3C3=NCCN32)cc1 (configuration not stated)	14.6	14.9	16	12.4	29.4	20.6	–	35.6	–	24.9	29	24.9	28
COc1c(C)cc2c(C(C)C)c(O)c(O)c(C=O)c2c1O	47.1	> 100	38.7	–	83.8	86	–	57.2	60.4	49.5	57.9	–	37.1
COc1cc(C2C3=C(COC3=O)Oc3cc4c(cc32)OCO4)ccc1O (configuration not stated)	37.9	> 100	–	0.346	29.5	–	–	> 100	1.31	0.471	> 100	> 100	> 100
COc1cc2c(c(OC)c1OC)-c1ccc(SC)c(=O)cc1C(CC(=O)Oc1cccc([N+](=O)[O-])c1)C2 (configuration not stated)	1.99	> 100	> 100	–	10.4	> 100	–	3.51	5.81	0.94	–	–	> 100
O=C(Cc1ccccc1F)NC1=C(Cl)C(=O)c2ccccc2C1=O	19.5	9.25	5	11.8	9.36	11.8	–	6.7	0.565	2.9	4.67	6.25	2.98
CCNC(=O)c1cc(Cl)ccc1NC(=O)C12CC3CC(CC(C3)C1)C2	37.3	> 100	> 100	70.9	> 100	> 100	–	> 100	> 100	> 100	> 100	> 100	81.9
COc1ccc(/C=C2/CSCC3=C2NC(=S)NC3c2ccc(OC)c(OC)c2OC)c(OC)c1OC (configuration not stated)	61.1	44.7	78.6	–	> 100	> 100	–	99.3	97.5	> 100	> 100	32.2	63.6

Reference: PubChem BioAssay (NCI)
